From patent publication US20230263822A1, “MODULATION OF FACTOR 11 EXPRESSION” (Ionis Pharmaceuticals, Inc., priority 2008, published 2023)
Strand notation (5' to 3'): a small letter for the sugar, then the base; units joined by * are phosphorothioate-linked, units joined directly phosphodiester-linked; [ ] holds rarer units or linkages, { } end groups; capitals alone tell only the bases. e = 2'-O-(2-methoxyethyl) (MOE); [5mC] = 5-methylcytosine; d = 2'-deoxy (DNA)

Key:
[1] = system: IL-1β, IL-6, IFN-γ, TNF-α, IL-8, MIP-1α, MCP-1, MIP-1β, RANTES; test: Cytokine and chemokine assays in cynomolgus monkeys (Example 45); format: in vivo; conditions: escalating dose regimen
Experimental: Groups, each consisting of two male and three female monkeys, were injected subcutaneously with ISIS 416838, ISIS 416850, ISIS 416858, ISIS 416864, or ISIS 417002 in escalating doses. Antisense oligonucleotide was administered to the monkeys at 5 mg/kg three times per a week for week 1; 5 mg/kg twice per week for weeks 2 and 3; 10 mg/kg three times per week for week 4; 10 mg/kg twice per week for weeks 5 and 6; 25 mg/kg three times per week for week 7; and 25 mg/kg twice per week for weeks 8, 9, 10, 11, and 12. One control group, consisting of two male and three female monkeys, was injected subcutaneously with PBS according to the same dosing regimen. An additional experimental group, consisting of two male and three female monkeys, was injected subcutaneously with ISIS 416850 in a chronic, lower dose regimen. Antisense oligonucleotide was administered to the monkeys at 5 mg/kg three times per week for week 1; 5 mg/kg twice per week for week 2 and 3; 10 mg/kg three times per week for week 4; and 10 mg/kg twice per week for weeks 5 to 12. Body weights were measured weekly. Blood samples were collected 14 days and 5 days before the start of treatment and subsequently once per week for Factor 11 protein activity analysis in plasma, fibrinogen measurement, PT and aPTT measurements, bleeding times, and measurement of various hematologic factors. On day 85, the monkeys were euthanized by exsanguination while under deep anesthesia, and organs harvested for further analysis.
Blood samples obtained from the monkey groups treated with PBS, ISIS 416850 and ISIS 416858 administered in the escalating dose regimen were sent to Pierce Biotechnology (Woburn, Mass.) for measurement of chemokine and cytokine levels. Levels of IL-1β, IL-6, IFN-γ, and TNF-α were measured using the respective primate antibodies and levels of IL-8, MIP-1α, MCP-1, MIP-1β and RANTES were measured using the respective cross-reacting human antibodies. Measurements were taken 14 days before the start of treatment and on day 85, when the monkeys were euthanized.

[2] = Tolerability in CD1 mice: kidney function, BUN, creatinine (Example 33); conditions: plasma, 50 mg/kg s.c. twice a week
Experimental: A control group of five mice was injected subcutaneously with PBS for 2 weeks. All experimental groups (i.e. ASO treated mice at 2, 4, 6 weeks) were compared to the control group (i.e. PBS, 2 weeks).
To evaluate the effect of ISIS oligonucleotides on kidney function, plasma concentrations of blood urea nitrogen (BUN) and creatinine were measured using an automated clinical chemistry analyzer (Hitachi Olympus AU400e, Melville, N.Y.).

[3] = Tolerability in Sprague-Dawley rats: kidney function (Example 44); format: in vivo; conditions: 50 mg/kg s.c. twice per week for 6 weeks; for BUN / Creatinine: plasma
[4] = Tolerability in Sprague-Dawley rats: body weight and organ weight (Example 42); conditions: 50 mg/kg s.c. twice per week for 6 weeks; for Change in Kidney weight / Change in Liver weight / Change in Spleen weight: end of study; for Change in body weight: percent increase over the PBS control weight
[5] = Tolerability in Sprague-Dawley rats: hematology assays (Example 42); conditions: 50 mg/kg s.c. twice per week for 6 weeks, blood
[6] = Tolerability in Sprague-Dawley rats: liver function (Example 42); conditions: 50 mg/kg s.c. twice per week for 6 weeks, plasma
[7] = Tolerability in Sprague-Dawley rats: kidney function (Example 42); conditions: 50 mg/kg s.c. twice per week for 6 weeks; for BUN / Creatinine: plasma
[8] = day −14 (before start of treatment)

Substance: ISIS 416850: MOE gapmer, nucleobases 1275 to 1318 of SEQ ID NO: 1 (Table 8) (antisense TGCACAGTTTCTGGCAGGCC; MOE gapmer, wing and gap sizes not given here)
- IFN-γ level ([1]; day 85): 18 pg/mL
- IL-1β level ([1]; day 85): 13 pg/mL
- IL-6 level ([1]; day 85): 17 pg/mL
- IL-8 level ([1]; day 85): 172 pg/mL
- MCP-1 level ([1]; day 85): 2330 pg/mL
- MIP-1α level ([1]; day 85): 41 pg/mL
- MIP-1β level ([1]; day 85): 216 pg/mL
- RANTES level ([1]; day 85): 83981 pg/mL
- TNF-α level ([1]; day 85): 27 pg/mL
- IFN-γ level [1, 8]: 126 pg/mL
- IL-1β level [1, 8]: 3 pg/mL
- IL-6 level [1, 8]: 30 pg/mL
- IL-8 level [1, 8]: 1659 pg/mL
- MCP-1 level [1, 8]: 1384 pg/mL
- MIP-1α level [1, 8]: 28 pg/mL
- MIP-1β level [1, 8]: 137 pg/mL
- RANTES level [1, 8]: 75335 pg/mL
- TNF-α level [1, 8]: 14 pg/mL
- BUN ([2]; 2 weeks): 25 mg/dL
- Creatinine ([2]; 2 weeks): 0.13 mg/dL
- BUN ([2]; 4 weeks): 30 mg/dL
- Creatinine ([2]; 4 weeks): 0.22 mg/dL
- BUN ([2]; 6 weeks): 23 mg/dL
- Creatinine ([2]; 6 weeks): 0.19 mg/dL

Substance: ISIS 449708: 3-8-3, 4-8-4, 2-10-2, 3-10-3 or 4-10-4 MOE microwalk gapmer (Table 46) (antisense eA*e[5mC]*eA*dG*dT*dT*dT*d[5mC]*dT*dG*dG*e[5mC]*eA*eG)
- BUN [3]: 24 mg/dL
- Creatinine [3]: 0.4 mg/dL
- Urine protein/creatinine ratio [3]: 5.7

Substance: ISIS 445522: 5-8-5 or 6-8-6 MOE microwalk gapmer (Table 44) (antisense eG*e[5mC]*eA*e[5mC]*eA*dG*dT*dT*dT*d[5mC]*dT*dG*dG*e[5mC]*eA*eG*eG*e[5mC])
- Change in Kidney weight [4]: +19%
- Change in Liver weight [4]: +26%
- Change in Spleen weight [4]: +184%
- Change in body weight [4]: −13%
- HCT [5]: 47%
- Lymphocyte [5]: 84%
- Neutrophil [5]: 13%
- Platelets [5]: 1334 nL⁻¹
- RBC [5]: 7.7 pL⁻¹
- WBC [5]: 18 nL⁻¹
- hemoglobin [5]: 13.6 g/dL
- monocytes [5]: 2.8%
- ALT [6]: 240 IU/L
- AST [6]: 138 IU/L
- Albumin [6]: 3.6
- Bilirubin [6]: 0.47 mg/dL
- BUN [7]: 25 mg/dL
- Creatinine [7]: 0.4 mg/dL
- Urine protein/creatinine ratio [7]: 6.4

Substance: ISIS 445531: 5-8-5 or 6-8-6 MOE microwalk gapmer (Table 44) (antisense eG*eG*e[5mC]*eA*eT*dT*dG*dG*dT*dG*d[5mC]*dA*d[5mC]*eA*eG*eT*eT*eT)
- Change in Kidney weight [4]: +4%
- Change in Liver weight [4]: +17%
- Change in Spleen weight [4]: +89%
- Change in body weight [4]: −10%
- HCT [5]: 50%
- Lymphocyte [5]: 86%
- Neutrophil [5]: 10%
- Platelets [5]: 1023 nL⁻¹
- RBC [5]: 8.8 pL⁻¹
- WBC [5]: 13 nL⁻¹
- hemoglobin [5]: 14.8 g/dL
- monocytes [5]: 2.8%
- ALT [6]: 272 IU/L
- AST [6]: 137 IU/L
- Albumin [6]: 3.7
- Bilirubin [6]: 0.12 mg/dL
- BUN [7]: 23 mg/dL
- Creatinine [7]: 0.4 mg/dL
- Urine protein/creatinine ratio [7]: 3.4

Substance: ISIS 416858: MOE gapmer, nucleobases 1275 to 1318 of SEQ ID NO: 1 (Table 8) (antisense ACGGCATTGGTGCACAGTTT; MOE gapmer, wing and gap sizes not given here)
- IFN-γ level ([1]; day 85): 18 pg/mL
- IL-1β level ([1]; day 85): 5 pg/mL
- IL-6 level ([1]; day 85): 25 pg/mL
- IL-8 level ([1]; day 85): 303 pg/mL
- MCP-1 level ([1]; day 85): 1752 pg/mL
- MIP-1α level ([1]; day 85): 41 pg/mL
- MIP-1β level ([1]; day 85): 221 pg/mL
- RANTES level ([1]; day 85): 125511 pg/mL
- TNF-α level ([1]; day 85): 45 pg/mL
- IFN-γ level [1, 8]: 60 pg/mL
- IL-1β level [1, 8]: 5 pg/mL
- IL-6 level [1, 8]: 9 pg/mL
- IL-8 level [1, 8]: 1552 pg/mL
- MCP-1 level [1, 8]: 1252 pg/mL
- MIP-1α level [1, 8]: 36 pg/mL
- MIP-1β level [1, 8]: 122 pg/mL
- RANTES level [1, 8]: 112253 pg/mL
- TNF-α level [1, 8]: 9 pg/mL
- BUN ([2]; 2 weeks): 21 mg/dL
- Creatinine ([2]; 2 weeks): 0.13 mg/dL
- BUN ([2]; 4 weeks): 29 mg/dL
- Creatinine ([2]; 4 weeks): 0.23 mg/dL
- BUN ([2]; 6 weeks): 19 mg/dL
- Creatinine ([2]; 6 weeks): 0.10 mg/dL

Substance: ISIS 449710: 3-8-3, 4-8-4, 2-10-2, 3-10-3 or 4-10-4 MOE microwalk gapmer (Table 46) (antisense e[5mC]*eA*e[5mC]*dA*dG*dT*dT*dT*d[5mC]*dT*dG*dG*d[5mC]*eA*eG*eG)
- BUN [3]: 29 mg/dL
- Creatinine [3]: 0.3 mg/dL
- Urine protein/creatinine ratio [3]: 5.9

Substance: ISIS 417002: MOE gapmer, nucleobases 1275 to 1318 of SEQ ID NO: 1 (Table 8) (antisense GGTGCACAGTTTCTGGCAGG; MOE gapmer, wing and gap sizes not given here)
- BUN ([2]; 2 weeks): 19 mg/dL
- Creatinine ([2]; 2 weeks): 0.06 mg/dL
- BUN ([2]; 4 weeks): 23 mg/dL
- Creatinine ([2]; 4 weeks): 0.16 mg/dL
- BUN ([2]; 6 weeks): 19 mg/dL
- Creatinine ([2]; 6 weeks): 0.10 mg/dL

Substance: ISIS 449709: 3-8-3, 4-8-4, 2-10-2, 3-10-3 or 4-10-4 MOE microwalk gapmer (Table 46) (antisense eG*e[5mC]*eA*e[5mC]*dA*dG*dT*dT*dT*d[5mC]*dT*dG*dG*d[5mC]*eA*eG*eG*e[5mC])
- BUN [3]: 24 mg/dL
- Creatinine [3]: 0.4 mg/dL
- Urine protein/creatinine ratio [3]: 3.4

Substance: ISIS 449711: 3-8-3, 4-8-4, 2-10-2, 3-10-3 or 4-10-4 MOE microwalk gapmer (Table 46) (antisense eA*e[5mC]*dA*dG*dT*dT*dT*d[5mC]*dT*dG*dG*d[5mC]*eA*eG)
- BUN [3]: 28 mg/dL
- Creatinine [3]: 0.4 mg/dL
- Urine protein/creatinine ratio [3]: 7.3

Substance: ISIS 416864: MOE gapmer, nucleobases 1275 to 1318 of SEQ ID NO: 1 (Table 8) (antisense GGCAGCGGACGGCATTGGTG; MOE gapmer, wing and gap sizes not given here)
- BUN ([2]; 2 weeks): 22 mg/dL
- Creatinine ([2]; 2 weeks): 0.11 mg/dL
- BUN ([2]; 4 weeks): 31 mg/dL
- Creatinine ([2]; 4 weeks): 0.22 mg/dL
- BUN ([2]; 6 weeks): 28 mg/dL
- Creatinine ([2]; 6 weeks): 0.16 mg/dL

Substance: ISIS 449707: 3-8-3, 4-8-4, 2-10-2, 3-10-3 or 4-10-4 MOE microwalk gapmer (Table 46) (antisense e[5mC]*eA*e[5mC]*eA*dG*dT*dT*dT*d[5mC]*dT*dG*dG*e[5mC]*eA*eG*eG)
- BUN [3]: 24 mg/dL
- Creatinine [3]: 0.4 mg/dL
- Urine protein/creatinine ratio [3]: 3.2

Substance: ISIS 416838: MOE gapmer, nucleobases 1018 to 1042 of SEQ ID NO: 1 (Table 6) (antisense GCAACCGGGATGATGAGTGC; MOE gapmer, wing and gap sizes not given here)
- BUN ([2]; 2 weeks): 25 mg/dL
- Creatinine ([2]; 2 weeks): 0.09 mg/dL
- BUN ([2]; 4 weeks): 38 mg/dL
- Creatinine ([2]; 4 weeks): 0.27 mg/dL
- BUN ([2]; 6 weeks): 30 mg/dL
- Creatinine ([2]; 6 weeks): 0.14 mg/dL
